Experimental findings from ChEMBL document CHEMBL3526076, “Species-dependent and receptor-selective action of bilobalide on the function of constitutive androstane receptor and pregnane X receptor” (Drug Metab Dispos, 2012) are described below.

The target in series [1] is T1, Nuclear receptor subfamily 1 group I member 2 (Homo sapiens, UniProt O75469).
T1 sequence (O75469 whole entry): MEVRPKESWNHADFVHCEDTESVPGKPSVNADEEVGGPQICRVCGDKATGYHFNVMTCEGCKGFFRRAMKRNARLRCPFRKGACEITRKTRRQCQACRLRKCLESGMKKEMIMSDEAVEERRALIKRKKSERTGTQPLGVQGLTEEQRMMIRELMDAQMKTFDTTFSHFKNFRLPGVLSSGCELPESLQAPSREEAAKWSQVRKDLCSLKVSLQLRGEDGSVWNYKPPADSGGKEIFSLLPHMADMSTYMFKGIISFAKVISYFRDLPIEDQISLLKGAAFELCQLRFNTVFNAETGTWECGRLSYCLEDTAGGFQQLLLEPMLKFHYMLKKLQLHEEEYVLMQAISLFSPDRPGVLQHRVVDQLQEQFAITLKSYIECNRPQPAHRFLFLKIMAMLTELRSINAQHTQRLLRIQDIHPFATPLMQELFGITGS
Put plainly: Activation of human PXR expressed in rat hepatocytes coexpressing CYP3A4 at 100 uM after 24 hrs by dual luciferase reporter gene assay. In kind it is ADME, cell-based, Hepatocyte. On the technique in general: In a reporter assay the amount or activity of a reporter protein is the signal.

For series [2], the system named is PXR mRNA. Put plainly: Effect on PXR mRNA expression in human hepatocytes at 50 uM by RT-PCR analysis relative to control. The format is ADME, cell-based, Hepatocyte. The conditions noted are these: read-out: FC.
Series [3] has as its target T1, Nuclear receptor subfamily 1 group I member 2. Put plainly: Activation of human PXR expressed in human HepG2 cells coexpressing CYP3A4 at 0.1 to 100 uM after 24 hrs by dual luciferase reporter gene assay. The format is ADME, cell-based. The note with it: hepg2, 24 h.
For series [4], the target named is T2, Nuclear receptor subfamily 1 group I member 3 (Homo sapiens, UniProt Q14994).
T2 sequence (Q14994 whole entry): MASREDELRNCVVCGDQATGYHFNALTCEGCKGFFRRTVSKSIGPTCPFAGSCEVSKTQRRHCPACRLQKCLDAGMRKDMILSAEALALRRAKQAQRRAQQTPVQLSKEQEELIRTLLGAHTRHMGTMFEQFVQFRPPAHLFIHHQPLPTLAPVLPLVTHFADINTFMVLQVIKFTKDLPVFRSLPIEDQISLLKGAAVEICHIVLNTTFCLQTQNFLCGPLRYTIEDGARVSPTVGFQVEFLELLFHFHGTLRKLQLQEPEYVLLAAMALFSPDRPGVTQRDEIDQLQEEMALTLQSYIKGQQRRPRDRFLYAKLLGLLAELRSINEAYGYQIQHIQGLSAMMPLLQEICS
As to the kind of experiment: Activation of CAR in human Hu1043 hepatocytes assessed as effect on CYP2B6 mRNA expression at 10 to 60 uM after 24 hrs by RT-PCR analysis. In kind it is ADME, cell-based, Hepatocyte.

The subject of another series is CAR mRNA. As to the kind of experiment: Effect on CAR mRNA expression in rat hepatocytes at 10 uM by RT-PCR analysis relative to control. In kind it is ADME, cell-based, Hepatocyte. The conditions noted are these: read-out: FC.
The target of series [5] is T1, Nuclear receptor subfamily 1 group I member 2. Put plainly: Antagonist activity at human PXR expressed in human HepG2 cells coexpressing CYP3A4 assessed as inhibition of rifampicin-induced receptor activation up to 100 uM after 24 hrs by dual luciferase reporter gene assay. The conditions noted are these: hepg2, 24 h. In kind it is ADME, cell-based.
For series [6] the target is unchanged. Put plainly: Activation of PXR in human Hu1043 hepatocytes assessed as effect on CYP3A4 mRNA expression at 10 to 60 uM after 24 hrs by RT-PCR analysis. In kind it is ADME, cell-based, Hepatocyte.
Series [7] concerns the target T3, Nuclear receptor subfamily 1 group I member 3 (Rattus norvegicus, UniProt Q9QUS1).
T3 sequence (Q9QUS1 whole entry): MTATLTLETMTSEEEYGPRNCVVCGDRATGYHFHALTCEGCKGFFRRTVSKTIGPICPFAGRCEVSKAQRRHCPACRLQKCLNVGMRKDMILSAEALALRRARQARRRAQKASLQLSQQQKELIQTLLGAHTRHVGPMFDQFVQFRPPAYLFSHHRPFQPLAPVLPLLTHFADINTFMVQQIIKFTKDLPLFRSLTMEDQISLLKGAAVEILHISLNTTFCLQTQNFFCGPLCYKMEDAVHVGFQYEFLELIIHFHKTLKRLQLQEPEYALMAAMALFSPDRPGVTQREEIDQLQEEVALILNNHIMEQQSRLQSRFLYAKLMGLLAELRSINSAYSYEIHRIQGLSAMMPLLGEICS
As to the kind of experiment: Activation of CAR in rat hepatocytes assessed as increase in CYP2B-mediated benzyloxyresorufin O-dealkylation at 10 uM after 24 hrs by spectrofluorometric analysis relative to phenobarbital. In kind it is ADME, cell-based, Hepatocyte.

In series [8] the target is T4, Nuclear receptor subfamily 1 group I member 2 (Rattus norvegicus, UniProt Q9R1A7).
T4 sequence (Q9R1A7 whole entry): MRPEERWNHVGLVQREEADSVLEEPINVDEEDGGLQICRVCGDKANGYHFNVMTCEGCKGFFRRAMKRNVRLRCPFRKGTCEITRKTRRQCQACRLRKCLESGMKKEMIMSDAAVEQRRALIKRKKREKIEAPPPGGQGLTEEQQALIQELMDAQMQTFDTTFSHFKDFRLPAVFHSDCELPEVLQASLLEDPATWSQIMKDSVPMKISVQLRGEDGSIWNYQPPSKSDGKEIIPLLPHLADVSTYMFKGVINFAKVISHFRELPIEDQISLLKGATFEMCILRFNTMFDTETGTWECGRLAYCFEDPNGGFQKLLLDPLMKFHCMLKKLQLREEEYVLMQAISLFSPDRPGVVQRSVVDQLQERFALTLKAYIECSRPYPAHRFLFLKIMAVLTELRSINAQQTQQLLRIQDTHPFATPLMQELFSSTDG
As to the kind of experiment: Activation of PXR in rat hepatocytes assessed as effect on CYP3A-mediated testosterone 6beta-hydroxylation at 1 to 30 uM after 24 hrs by HPLC analysis. The format is ADME, cell-based, Hepatocyte.

Series [9] concerns the target T3, Nuclear receptor subfamily 1 group I member 3. Put plainly: Activation of rat CAR expressed in rat hepatocytes coexpressing CYP2B1 at 100 uM after 24 hrs by dual luciferase reporter gene assay relative to control. The format is ADME, cell-based, Hepatocyte. The conditions noted are these: hepatocytes, 24 h, 100 µM.
For series [10] the target is unchanged. Put plainly: Activation of rat CAR expressed in rat hepatocytes coexpressing CYP2B1 at 30 uM after 24 hrs by dual luciferase reporter gene assay relative to phenobarbital. In kind it is ADME, cell-based, Hepatocyte.
Series [11] concerns PXR mRNA. As to the kind of experiment: Effect on PXR mRNA expression in rat hepatocytes at 30 uM by RT-PCR analysis relative to control. The format is ADME, cell-based, Hepatocyte. The note with it: read-out: FC.
Series [12] deals with T4, Nuclear receptor subfamily 1 group I member 2. As to the kind of experiment: Activation of rat PXR expressed in human HepG2 cells coexpressing CYP3A4 at 0.1 to 100 uM after 24 hrs by dual luciferase reporter gene assay. In kind it is ADME, cell-based. The conditions noted are these: hepg2, 24 h.
In series [13] the target is T3, Nuclear receptor subfamily 1 group I member 3. Put plainly: Activation of CAR in rat hepatocytes assessed as increase in CYP2B-mediated benzyloxyresorufin O-dealkylation at 1 uM after 24 hrs by spectrofluorometric analysis relative to phenobarbital. The format is ADME, cell-based, Hepatocyte.
Series [14] has as its system PXR mRNA. As to the kind of experiment: Effect on PXR mRNA expression in human hepatocytes at 10 uM by RT-PCR analysis relative to control. The format is ADME, cell-based, Hepatocyte. The conditions noted are these: read-out: FC.
The test system of the next series is HepG2. Put plainly: Cytotoxicity against human HepG2 cells at 1 to 100 uM after 24 hrs by lactate dehydrogenase assay. In kind it is cell-based. The conditions noted are these: hepg2, 24 h.
Series [15] deals with T1, Nuclear receptor subfamily 1 group I member 2. Put plainly: Activation of PXR in human Hu1108 hepatocytes assessed as effect on CYP3A-mediated testosterone 6beta-hydroxylation at 10 to 50 uM after 24 hrs by HPLC analysis. In kind it is ADME, cell-based, Hepatocyte.
The target in series [16] is T2, Nuclear receptor subfamily 1 group I member 3. As to the kind of experiment: Antagonist activity at human CAR expressed in human HepG2 cells coexpressing CYP2B6 assessed as inhibition of CITCO-induced receptor activation up to 100 uM after 24 hrs by dual luciferase reporter gene assay. In kind it is ADME, cell-based. The note with it: hepg2, 24 h.

Each structure is given as a SMILES string.

Turning to `CC(C)(C)[C@]1(O)C[C@@H]2OC(=O)C[C@@]23C(=O)O[C@@H]2OC(=O)[C@H](O)[C@]213`, the Activity result in series [1] was “Not Active”; in series [3] it was “Not Active”; in [4], “Not Active”; in series [6] it was “Not Active”; in series [7], 64%; in [8], “Not Active”. The Activity entry in series [9] is given as “Active”; in [10], 189%; in [12], “Not Active”; in series [13] it was 30%; with HepG2, “Non-toxic”; in [15], “Not Active”. The fold induction at 50 µM with PXR mRNA [2] came out at 0.4. For the same compound, the fold induction at 10 µM in the series with CAR mRNA is 1.1; with PXR mRNA [14], 0.7. The “inhibition (INH)” value in [5] and in [16] was “Not Active” in each case. Further, the fold induction at 30 µM in the series on PXR mRNA [11] is 0.8.
